Peptide text beside a SMILES is read from it.

In assay [1] the target is FXII. Briefly: Binding of 125I-FXII to kaolin. Set-up: species or system human. As to the method: • Figure 1: Effects of mAb KOK5 on activation of purified FXII. • A: Activation by kallikrein: Twenty-five µl of prewarmed FXII (125 nM), 25 µl of serial dilutions of mAb KOK5, 25 µl of prewarmed kallikrein (25 nM) and 25 µl of buffer yielding final concentrations of 50 mM Tris-HCl, 150 mM NaCl, 0.1% (wt/vol) Tween-20, pH 7.8, were incubated for 30 min at 37°C. Thereafter, 50 µl of assay mixture containing the chromogenic substrate S-2302 were added and the increase in absorbance at 405 nm at 37°C was recorded. Results are expressed as percentage of the total amount of FXII present in the mixture (as determined by limited digestion with 10 nM trypsin), and represent the mean ± SE of two experiments. […] Thereafter, 50 µl of assay mixture containing S-2302 were added and the increase in absorbance at 405 nm at 37°C was recorded. […] The reaction was stopped by adding 120 µl of stop buffer (PBS, 0.1 mg/ml SBTI, Polybrene 0.05% wt/vol) and the amount of FXIIa-C1-inhibitor (+---+), kallikrein-C1-inhibitor (o- -o) and factor XIa-C1-inhibitor (●- -●) complexes generated was measured. Results, expressed as percentage of the maximum amount of complexes generated in pooled plasma by DS500 (50 µg/ml), represent the mean values ± S.D. from three different experiments. • Figure 3. […] Binding was expressed as the percentage of the total counts that were found in the pellet in the absence of mAbs. […]

Assay [2] deals with contact system. Briefly: Inhibition by synthetic peptides of contact system activation in EDTA-plasma induced by DS500. It counts as biochemical, human. The following applies: Activator DS500. The procedure:
(§1) • Figure 1: Effects of mAb KOK5 on activation of purified FXII. • A: Activation by kallikrein: Twenty-five µl of prewarmed FXII (125 nM), 25 µl of serial dilutions of mAb KOK5, 25 µl of prewarmed kallikrein (25 nM) and 25 µl of buffer yielding final concentrations of 50 mM Tris-HCl, 150 mM NaCl, 0.1% (wt/vol) Tween-20, pH 7.8, were incubated for 30 min at 37°C. Thereafter, 50 µl of assay mixture containing the chromogenic substrate S-2302 were added and the increase in absorbance at 405 nm at 37°C was recorded. Results are expressed as percentage of the total amount of FXII present in the mixture (as determined by limited digestion with 10 nM trypsin), and represent the mean ± SE of two experiments. […] Thereafter, 50 µl of assay mixture containing S-2302 were added and the increase in absorbance at 405 nm at 37°C was recorded. […] The reaction was stopped by adding 120 µl of stop buffer (PBS, 0.1 mg/ml SBTI, Polybrene 0.05% wt/vol) and the amount of FXIIa-C1-inhibitor (+---+), kallikrein-C1-inhibitor (o- -o) and factor XIa-C1-inhibitor (●- -●) complexes generated was measured. Results, expressed as percentage of the maximum amount of complexes generated in pooled plasma by DS500 (50 µg/ml), represent the mean values ± S.D. from three different experiments. • Figure 3. […] In addition 50 µl of purified FXII (500 nM) were first incubated for 2 min with kaolin and then with serial dilutions of mAb KOK5 for 15 min (+---+); whereafter the residual FXII clotting activity was measured. Results are expressed as percentage of inhibition compared to the clotting activity measured in the absence of mAbs and are the mean ± SE of two experiments. • Figure 4. […] After 10 min at room temperature tubes were centrifuged for 2 min at 10,000 g and the pellets were counted for radioactivity. Binding was expressed as the percentage of the total counts that were found in the pellet in the absence of mAbs. […] Bound FXII was detected by subsequent incubation with ^125I-anti-FXII antibodies. Results are expressed as percentage of the ^125I-anti-FXII added and represent the means of two experiments. • Figure 6. […]

The subject of assay [3] is contact system. Briefly: Inhibition by synthetic peptides of contact system activation in EDTA-plasma induced by kaolin. It counts as biochemical, human. The following applies: Activator kaolin. As to the method:
as §1, with “measured.” for “measured. Results, expressed as percentage of the maximum amount of complexes generated in pooled plasma by DS500 (50 µg/ml), represent the mean values ± S.D. from three different experiments. • Figure 3.”

Assay [4] addresses mAb KOK5. Description: cell-based or functional assay.
Setting [5] is: read-out: FXIIa-C1inh (IC50 values).
Where [6] appears, read: read-out: FXIa-C1inh (IC50 values).
[7] abbreviates: read-out: kal-C1inh (IC50 values).

One may read the IC50 as the point on the concentration scale where inhibition reaches its midpoint. Consider `C[C@@H](O)[C@H](NC(=O)[C@H](CS)NC(=O)[C@H](CCC(N)=O)NC(=O)[C@H](Cc1c[nH]cn1)NC(=O)[C@@H](N)CO)C(=O)N[C@@H](Cc1c[nH]cn1)C(=O)N[C@@H](CCCNC(=N)N)C(=O)N[C@@H](CCCCN)C(=O)N[C@@H](CS)C(=O)N[C@@H](Cc1ccc(O)cc1)C(=O)O` [SHQCTHRKCY] (H-SHQCTHRKCY-OH), for which the “IC50 relative to that of FXII itself (times higher)” value in assay [1] (inhibition of binding of 125I-FXII to kaolin) is 10,000 times. Moreover, the IC50 came to 0.9 mM in assay [1] (synthetic peptides, read-out: IC50, inhibition of binding of 125I-FXII to kaolin); 3.15 ± 0.85 mM in assay [2] (setting [5]); 6.75 ± 1.25 mM in assay [2] (setting [6]); 5.25 ± 2.7 mM in assay [2] (setting [7]); 7 ± 1.4 mM in assay [3] (setting [5]); 7.5 ± 0.5 mM in assay [3] (setting [6]). The IC50 in assay [3] (setting [7]) was found to be 6 ± 2.1 mM.
For AEGEFRFQTPQWE [synthetic peptide …], the inhibition of FXII activation by kallikrein in the presence of mAb KOK5 (IC50) in assay [4] amounted to 0.05 mM.

The values above are taken from patent EP0982397A1, “Inhibition of contact system activation” (Stichting Sanquin Bloedvoorziening, priority 1998, dated 2000).
